A short description of data set [1]: Caco-2 permeability assay. Type of data set: in vitro ADME. As to conditions: human, 10 μM test compound, pH 7.4, 37° C., 120 minutes, direction of the value not given, read-out: Caco-2 Perm. The procedure: Permeability Assay. A permeability study was conducted using Caco-2 cells (ECACC Cat. no. 09042001) seeded on cell inserts plate (Millicell, Cat #PSHT010R^5) at a density of 80,000 cells per well, and the cells were maintained for 18-21 days in culture medium (1×DMEM with 10% FBS, 0.1 mg/mL Penicillin/Streptomycin). The culture medium was changed every alternate day. Prior to the experiments, the integrity of the cellular monolayer was evaluated by measuring the TEER value using a volt ohm meter and STX100C96 electrode. Only monolayers with TEER values greater than 800 ohm·cm^2 in buffer after the first wash were used.
An assay buffer (HBSS with Ca+2 and Mg+2 buffered with 10 mM HEPES and 25 mM D-Glucose, pH-7.4) was used on apical side as well as on basolateral side.
An intermediate stock solution of a test compound was prepared in DMSO at a concentration of 1 mM in DMSO. This stock solution was spiked in the assay buffer to achieve a target test compound concentration of 10 μM. The organic content of final drug preparation was 1.0% v/v. The bidirectional permeability experiment was done in singlet and the sample analysis was done in duplicate.
The cultured cell monolayer was washed twice with assay buffer (0.4 mL and 0.8 mL was added to the apical and basolateral sides, respectively, of the culture plate), and then buffers from both compartments were discarded.
For the apical to basal (AP>BL) experiment, aliquots of 0.4 mL donor solution (assay buffer, pH 7.4 containing test compound) and 0.8 mL of receiver solutions (assay buffer, pH 7.4, only) were added to the apical and basolateral compartments, respectively. For the basal to apical (BL>AP) experiment, aliquots of 0.8 mL donor solution (assay buffer pH-7.4 containing test compound) and 0.4 mL of receiver solutions (assay buffer, pH-7.4) were added to the basolateral and apical compartments, respectively. The plate was then kept in an incubator at 37° C. for 120 minutes.
Control experiments with Propranolol (High Permeability), Atenolol (Low Permeability), Digoxin (High Efflux-Pgp substrate), and Digoxin+Verapamil (Pgp Inhibitor) in both directions (AP>BL and BL>AP) were performed in separate wells on the same experiment day.
After the completion of the transport experiment, the integrity of the cell monolayer was evaluated by measuring the Lucifer Yellow (LY) rejection. To do this, 400 μL of 10 μM LY was added to each well of the filter plate and incubated for 1 hour at 37° C. Subsequently, the samples were collected from the basolateral compartments, and the LY fluorescence was measured using an excitation wavelength of 485 nm and an emission wavelength of 530 nm. The percent LY rejection across the cell monolayer was calculated by measuring fluorescence in the receiver plate (basolateral compartment) compared to theoretical equilibrium standard.
The study samples (collected from apical and basolateral compartments after 120 min incubation) were analyzed by LCMS/MS, following which the Papp of the compound(s) was calculated in both apical to basal and basal to apical directions. Papp=([DBL]×VBL)/(A×t×[DAP]) where: [DBL]=final drug concentration on the basolateral side, VBL=volume of the basolateral compartment, A=surface area of the cell culture, t=total incubation time, and [DAP]=initial drug concentration on the apical side.
(Caco-2 cells form a polarised layer with tight junctions and transporters.)

In data set [2] the target is T1, Plasma Kallikrein (Homo sapiens, UniProt P03952). As to the kind of experiment: Plasma kallikrein activity in pooled human plasma. Type of data set: biochemical. Details: Plasma Kallikrein activity was also measured in pooled human plasma; from tissue; host or cells: pooled human plasma. The following applies: Z-FR-AMC substrate, activated with 10% Actin FS solution, 10 minutes, read-out: Pooled Human Plasma PKal IC50. The procedure:
(§1) Plasma kallikrein protease inhibition assay. Two methods for determining the IC50 of a test compound against Plasma Kallikrein are provided.
Second, Plasma Kallikrein activity was also measured in pooled human plasma. First, a 10% Actin FS solution was prepared in assay buffer. Each test compound was dissolved in DMSO and delivered to the reaction mixture along with Z-FR-AMC substrate and pooled human plasma. The multi-well reaction plate was incubated for five minutes at room temperature. To initiate the reaction, the 10% Actin FS solution was added to each well, and kinetic measurements were taken at Ex/Em at 355/460 nm. The fluorescence signal was recorded every 30 seconds for a total of 10 minutes.

Data set [3] deals with T1, Plasma Kallikrein. As to the kind of experiment: Plasma kallikrein protease inhibition assay, purified enzyme. In kind it is biochemical. Details: NS0-derived Gly20-Ala638, with a C-terminal 60-His tag; 60-His (so in the source) (C); purchased R&D Systems 2497-SE; host or cells: Mouse myeloma cell line, NS0. As to conditions: 10 μM Z-FR-AMC substrate, 20-minute pre-incubation, pH 8.0/8.5, room temperature, read-out: Purified PKal IC50. How it is done: as §1
In the first method was used a reaction buffer composed of 25 mM Tris-HCl (pH 8.0), 100 mM NaCl (pH 8.5), 0.01% Brij35, and 1% DMSO (final). The enzyme used was Plasma Kallikrein (R&D Systems Cat #2497-SE; Recombinant Human Plasma Kallikrein, expressed in Mouse myeloma cell line, NS0-derived Gly20-Ala638, with a C-terminal 60-His tag. MW=70 kDa).
The enzyme was activated by dilution to 200 μg/mL in activation buffer (100 mM Tris, 10 mM CaCl2, 150 mM NaCl, pH 7.5 (TCN), and then combined with an equal volume of 20 μg/mL thermolysin to form a reaction buffer. Each test compound was then dissolved in DMSO and delivered into the reaction buffer. The reaction was initiated by delivering a substrate solution containing 10 μM Z-FR-AMC (Enzo Cat #P-139; AMC: 7-Amino-4-methylcoumarin) into the reaction well after a 20-minute pre-incubation period.
Measurement was conducted with En Vision (PE) with excitation and emission wavelengths of 355 nm and 460 nm, respectively. […]. The enzyme activities were monitored every 5 minutes as a time-course measurement of the increase in signal from fluorescently labeled peptide substrate for 120 minutes at room temperature.
Data was analyzed by taking slope*(signal/time) of the linear portion of measurements. Slope was calculated using Excel, and curve fits were performed using Prism software.

T1 sequence (P03952 391-638 limits assumed): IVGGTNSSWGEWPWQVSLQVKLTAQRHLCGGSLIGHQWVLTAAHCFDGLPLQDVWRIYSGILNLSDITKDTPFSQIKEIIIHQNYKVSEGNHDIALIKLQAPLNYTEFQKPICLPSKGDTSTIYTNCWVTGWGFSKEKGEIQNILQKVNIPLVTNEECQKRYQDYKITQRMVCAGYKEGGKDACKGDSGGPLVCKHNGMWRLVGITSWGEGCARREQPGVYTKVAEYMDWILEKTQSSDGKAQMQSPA
T1 sequence (P03952 20-390 partner limits assumed): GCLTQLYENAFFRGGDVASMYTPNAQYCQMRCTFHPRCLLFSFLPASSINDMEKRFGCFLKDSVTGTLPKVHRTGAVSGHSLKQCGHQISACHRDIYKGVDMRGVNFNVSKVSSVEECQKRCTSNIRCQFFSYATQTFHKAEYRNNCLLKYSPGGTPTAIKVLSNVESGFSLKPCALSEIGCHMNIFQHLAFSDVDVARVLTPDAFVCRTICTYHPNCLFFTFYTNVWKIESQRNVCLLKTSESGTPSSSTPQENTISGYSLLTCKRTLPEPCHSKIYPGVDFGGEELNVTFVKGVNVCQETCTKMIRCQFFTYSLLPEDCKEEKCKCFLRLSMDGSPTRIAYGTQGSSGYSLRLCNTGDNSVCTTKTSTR

The IC50 is the concentration that gives 50% inhibition. In the case of `N#CCc1ccc(Cn2cc(C(=O)NCc3ccc(C(=N)N)cc3)cn2)cc1` [Example 1, N-(4-carbamimidoylbenzyl)-1-(4-(cyanomethyl)benzyl)-1H-pyrazole-4-carboxamide], the Papp at 2 h, 10 µM in data set [1] was under 2 ×10⁻⁶ cm/s. In addition, the values for the IC50 on Plasma Kallikrein [2] and at Plasma Kallikrein [3] were under 100 nM and under 1 nM, respectively.

With `N#CCCc1ccc(Cn2cc(C(=O)NCc3ccc(C(=N)N)cc3)cn2)cc1` [Example 3, N-(4-carbamimidoylbenzyl)-1-(4-(2-cyanoethyl)benzyl)-1H-pyrazole-4-carboxamide], the Papp at 2 h, 10 µM in data set [1] is under 2 ×10⁻⁶ cm/s. Further, the IC50 was under 100 nM at Plasma Kallikrein [2] and under 1 nM on Plasma Kallikrein [3].

With `N#CCCc1ccc(Cn2cnc(C(=O)NCc3ccc(C(=N)N)cc3)c2)cc1` [Example 4, N-(4-carbamimidoylbenzyl)-1-(4-(2-cyanoethyl)benzyl)-1H-imidazole-4-carboxamide], the Papp at 2 h, 10 µM in data set [1] is under 2 ×10⁻⁶ cm/s. Further, the concentration for half-maximal inhibition (IC50) at Plasma Kallikrein [3] was under 1 nM.

For the compound `CC(C)(C#N)c1ccc(Cn2cc(C(=O)NCc3ccc(C(=N)N)cc3)cn2)cc1` [Example 7, N-(4-carbamimidoylbenzyl)-1-(4-(2-cyanopropan-2-yl)benzyl)-1H-pyrazole-4-carboxamide], the Papp at 2 h, 10 µM in data set [1] was under 2 ×10⁻⁶ cm/s. The results for the IC50 at Plasma Kallikrein [2] and on Plasma Kallikrein [3] were under 100 nM and under 1 nM, respectively.

For `CC(C)(C#N)c1ccc(Cn2cnc(C(=O)NCc3ccc(C(=N)N)cc3)c2)cc1` [Example 8, N-(4-carbamimidoylbenzyl)-1-(4-(2-cyanopropan-2-yl)benzyl)-1H-imidazole-4-carboxamide], in data set [1], the Papp at 2 h, 10 µM is under 2 ×10⁻⁶ cm/s. Moreover, the IC50 at Plasma Kallikrein [3] fell in the range of 1 to 10 nM.

Turning to `N#CCc1ccc(Cn2cnc(C(=O)NCc3ccc(C(=N)N)cc3)c2)cc1` [Example 9, N-(4-carbamimidoylbenzyl)-1-(4-(cyanomethyl)benzyl)-1H-imidazole-4-carboxamide], the Papp at 2 h, 10 µM in data set [1] lay in the range of 2 to 10 ×10⁻⁶ cm/s. Further, at Plasma Kallikrein [3], the IC50 lay within 1 to 10 nM.

In the case of `COCCc1ccc(Cn2cc(C(=O)NCc3ccc(C(=N)N)cc3)cn2)cc1` [Example 15, N-(4-carbamimidoylbenzyl)-1-(4-(2-methoxyethyl)benzyl)-1H-pyrazole-4-carboxamide], in data set [1], the Papp at 2 h, 10 µM was in the range of 2 to 10 ×10⁻⁶ cm/s. The IC50 at Plasma Kallikrein [2] was under 100 nM; at Plasma Kallikrein [3], under 1 nM.

As to `N=C(N)c1ccc(CNC(=O)c2cnn(Cc3ccc(CC(N)=O)cc3)c2)cc1` [Example 18, 1-(4-(2-amino-2-oxoethyl)benzyl)-N-(4-carbamimidoylbenzyl)-1H-pyrazole-4-carboxamide], in data set [1], the Papp at 2 h, 10 µM is under 2 ×10⁻⁶ cm/s. Moreover, on Plasma Kallikrein [3], the IC50 is 1 to 10 nM.

Take `CNC(=O)Cc1ccc(Cn2cc(C(=O)NCc3ccc(C(=N)N)cc3)cn2)cc1` [Example 19, N-(4-carbamimidoylbenzyl)-1-(4-(2-(methylamino)-2-oxoethyl)benzyl)-1H-pyrazole-4-carboxamide]: the Papp at 2 h, 10 µM in data set [1] is under 2 ×10⁻⁶ cm/s. The IC50 at Plasma Kallikrein [2] was under 100 nM; at Plasma Kallikrein [3], under 1 nM.

In the case of `N#Cc1ccn(Cc2ccc(Cn3cc(C(=O)NCc4ccc(C(=N)N)cc4)cn3)cc2)c1` [Example 26, N-(4-carbamimidoylbenzyl)-1-(4-((3-cyano-1H-pyrrol-1-yl)methyl)benzyl)-1H-pyrazole-4-carboxamide], the Papp at 2 h, 10 µM in data set [1] was under 2 ×10⁻⁶ cm/s. In addition, the IC50 is under 100 nM on Plasma Kallikrein [2] and under 1 nM at Plasma Kallikrein [3].

For the compound `N#Cc1cccc(Cc2ccc(Cn3cc(C(=O)NCc4ccc(C(=N)N)cc4)cn3)cc2)c1` [Example 28, N-(4-carbamimidoylbenzyl)-1-(4-(3-cyanobenzyl)benzyl)-1H-pyrazole-4-carboxamide], in data set [1], the Papp at 2 h, 10 µM is under 2 ×10⁻⁶ cm/s. Moreover, the IC50 at Plasma Kallikrein [2] is under 100 nM; at Plasma Kallikrein [3], under 1 nM.

For `CN(C)C(=O)Cc1ccc(Cn2cc(C(=O)NCc3ccc(C(=N)N)cc3)cn2)cc1` [Example 33, N-(4-carbamimidoylbenzyl)-1-(4-(2-(dimethylamino)-2-oxoethyl)benzyl)-1H-pyrazole-4-carboxamide], the Papp at 2 h, 10 µM in data set [1] is under 2 ×10⁻⁶ cm/s. Besides, the results for the IC50 on Plasma Kallikrein [2] and on Plasma Kallikrein [3] were under 100 nM and under 1 nM, respectively.

Regarding `CC(C)(C#N)c1ccc(Cn2cc(C(=O)NCc3ccc(C(=N)N)c(F)c3)cn2)cc1` [Example 43, N-(4-carbamimidoyl-3-fluorobenzyl)-1-(4-(2-cyanopropan-2-yl)benzyl)-1H-pyrazole-4-carboxamide], the Papp at 2 h, 10 µM in data set [1] was under 2 ×10⁻⁶ cm/s. Besides, the IC50 at Plasma Kallikrein [2] was under 100 nM; at Plasma Kallikrein [3] it was 1 to 10 nM.

As to `CC(C)(C#N)c1ccc(Cn2cc(C(=O)NCc3ccc(C(=N)N)cc3F)cn2)cc1` [Example 45, N-(4-carbamimidoyl-2-fluorobenzyl)-1-(4-(2-cyanopropan-2-yl)benzyl)-1H-pyrazole-4-carboxamide], the Papp at 2 h, 10 µM in data set [1] lay within 2 to 10 ×10⁻⁶ cm/s. For the same compound, the IC50 at Plasma Kallikrein [2] was under 100 nM; at Plasma Kallikrein [3], under 1 nM.

Regarding `COc1cc(CNC(=O)c2cnn(Cc3ccc(C(C)(C)C#N)cc3)c2)cc(F)c1C(=N)N` [Example 48, N-(4-carbamimidoyl-3-fluoro-5-methoxybenzyl)-1-(4-(2-cyanopropan-2-yl)benzyl)-1H-pyrazole-4-carboxamide], the Papp at 2 h, 10 µM in data set [1] is under 2 ×10⁻⁶ cm/s. Besides, the results for the IC50 at Plasma Kallikrein [2] and at Plasma Kallikrein [3] were 100 to 1000 nM and 10 to 100 nM, respectively.

On to `N#Cc1cccc(Cc2ccc(Cn3cc(C(=O)NCc4ccc(C(=N)N)c(F)c4)cn3)cc2)c1` [Example 49, N-(4-carbamimidoyl-3-fluorobenzyl)-1-(4-(3-cyanobenzyl)benzyl)-1H-pyrazole-4-carboxamide], for which the Papp at 2 h, 10 µM in data set [1] is under 2 ×10⁻⁶ cm/s. Further, the IC50 was 100 to 1000 nM at Plasma Kallikrein [2] and under 1 nM on Plasma Kallikrein [3].

Regarding `N#Cc1cccc(Cc2ccc(Cn3cc(C(=O)NCc4ccc(C(=N)N)cc4F)cn3)cc2)c1` [Example 50, N-(4-carbamimidoyl-2-fluorobenzyl)-1-(4-(3-cyanobenzyl)benzyl)-1H-pyrazole-4-carboxamide], the Papp at 2 h, 10 µM in data set [1] was under 2 ×10⁻⁶ cm/s. In addition, the IC50 at Plasma Kallikrein [2] was under 100 nM; at Plasma Kallikrein [3] it was under 1 nM.
